Consider 22 molecules from patent publication EP4803513A1, “SUBSTITUTED QUINAZOLINE COMPOUND, PREPARATION METHOD THEREFOR, PHARMACEUTICAL COMBINATION THEREOF, AND USE THEREOF” (Hongyun Biotech Co., Ltd., priority 2023, dated 2025).

One test has as its system BRK-BaF3 cells. The experiment in a line: Cell antiproliferative activity assay (CCK-8), BRK-BaF3. Type of test: cell-based. Conditions: 72 h, CCK-8, 3 days incubation. In short, it runs like this: (§1)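 Growth inhibition over 3 days, with compound serially diluted 3-fold from a 10 µM top concentration. Cells seeded at 100,000 cells/mL; WT-BaF3 medium carried 10% WEHI supernatant as the IL-3 source. Viability read by CCK-8 OD450 after 2-4 h; IC50 from blank-subtracted curve fit.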
On to `Cc1ccc(C#N)cc1-c1cc(C(C)C)c2nc(Nc3cn(CCO)nc3C)ncc2c1` [I-162], for which the IC50 was no more than 20 nM.

The molecule `Cc1nn(CCO)cc1Nc1ncc2cc(-c3c[nH]nc3C)cc(C(C)C)c2n1` [I-187] registered a 50% inhibitory concentration (IC50) of no more than 20 nM.

For `Cc1nn(CCO)cc1Nc1ncc2cc(-c3c(C)n[nH]c3C)cc(C(C)C)c2n1` [I-189], the IC50 is no more than 20 nM.

Turning to `Cc1nn(CCO)cc1Nc1ncc2cc(-c3cnoc3C)cc(C(C)C)c2n1` [I-193], the IC50 was no more than 20 nM.

Molecule `Cc1nccnc1-c1cc(C(C)C)c2nc(Nc3ccc(P(C)(C)=O)cc3)ncc2c1` [II-11] returned an IC50 of no more than 20 nM.

`Cc1nccnc1-c1cc(C(C)C)c2nc(Nc3ccc(P(C)(C)=O)cc3F)ncc2c1` [II-12] had an IC50 of 20 to 100 nM.

`COc1cc(Nc2ncc3cc(-c4nccnc4C)cc(C(C)C)c3n2)ccc1P(C)(C)=O` [II-16] yielded an IC50 of no more than 20 nM.

Consider `Cc1nccnc1-c1cc(C(C)C)c2nc(Nc3ccc(P(C)(C)=O)c(C)c3F)ncc2c1` [II-18], for which the half-maximal inhibitory concentration (IC50) was no more than 20 nM.

On to `COc1cc(Nc2ncc3cc(-c4nccnc4C)cc(C(C)C)c3n2)c(F)cc1P(C)(C)=O` [II-22], for which the IC50 was no more than 20 nM.

Regarding `COc1cc(Nc2ncc3cc(-c4nccnc4C)cc(C4CC4)c3n2)ccc1P(C)(C)=O` [II-33], the IC50 was no more than 20 nM.

`COc1cc(Nc2ncc3cc(-c4c(C)ncnc4C)cc(C4CC4)c3n2)ccc1P(C)(C)=O` [II-62] showed an IC50 of no more than 20 nM.

For `COc1cc(Nc2ncc3cc(-c4cccnc4C)cc(C4CC4)c3n2)ccc1P(C)(C)=O` [II-64], the IC50 was no more than 20 nM.

As for `COc1cc(Nc2ncc3cc(-c4nnccc4C)cc(C4CC4)c3n2)ccc1P(C)(C)=O` [II-67], the IC50 was no more than 20 nM.

In the case of `COc1cc(Nc2ncc3cc(-c4nccnc4C)cc(C4CC4)c3n2)c(F)cc1P(C)(C)=O` [II-70], the IC50 lay within 20 to 100 nM.

In turn, `COc1nc(Nc2ncc3cc(-c4nccnc4C)cc(C4CC4)c3n2)ccc1P(C)(C)=O` [II-71] displayed an IC50 of no more than 20 nM.

In turn, `CCOc1cc(Nc2ncc3cc(-c4nccnc4C)cc(C4CC4)c3n2)ccc1P(C)(C)=O` [II-72] gave an IC50 of no more than 20 nM.

Consider `CCP(=O)(CC)c1ccc(Nc2ncc3cc(-c4nccnc4C)cc(C4CC4)c3n2)cc1OC` [II-74], for which the concentration for half-maximal inhibition (IC50) was no more than 20 nM.

Consider `CNc1cc(Nc2ncc3cc(-c4nccnc4C)cc(C4CC4)c3n2)ccc1P(C)(C)=O` [II-77], for which the IC50 is no more than 20 nM.

The molecule `Cc1c[nH]c(=O)cc1-c1cc(C(C)C)c2nc(Nc3cn(C)nc3C)ncc2c1` [III-2] showed an IC50 of no more than 20 nM.

`Cc1c[nH]c(=O)cc1-c1cc(C(C)C)c2nc(Nc3cn(C)nc3C(F)F)ncc2c1` [III-4] yielded an IC50 of no more than 20 nM.

`[2H]C([2H])([2H])n1cc(Nc2ncc3cc(-c4cc(=O)[nH]cc4C)cc(C(C)C)c3n2)c(C)n1` [III-9] gave a concentration for half-maximal inhibition (IC50) of no more than 20 nM.

A further test concerns WT-BaF3 cells. The experiment in a line: Cell antiproliferative activity assay (CCK-8), WT-BaF3 (broad-spectrum cytotoxicity). Type of test: cell-based. Conditions: 72 h; WT-BaF3 cells (IL-3 supplemented), CCK-8, 3 days incubation. The gist of the method:
as §1
In turn, `Cc1ccc(C#N)cc1-c1cc(C(C)C)c2nc(Nc3cn(CCO)nc3C)ncc2c1` [I-162] showed an IC50 of 500 to 2500 nM.

Molecule `Cc1nn(CCO)cc1Nc1ncc2cc(-c3c[nH]nc3C)cc(C(C)C)c2n1` [I-187] registered an IC50 of 500 to 2500 nM.

In the case of `Cc1nn(CCO)cc1Nc1ncc2cc(-c3c(C)n[nH]c3C)cc(C(C)C)c2n1` [I-189], the 50% inhibitory concentration (IC50) was 500 to 2500 nM.

The molecule `Cc1nn(CCO)cc1Nc1ncc2cc(-c3cnoc3C)cc(C(C)C)c2n1` [I-193] registered an IC50 of 100 to 500 nM.

Molecule `Cc1nccnc1-c1cc(C(C)C)c2nc(Nc3ccc(P(C)(C)=O)cc3)ncc2c1` [II-11] yielded a half-maximal inhibitory concentration (IC50) of 500 to 2500 nM.

The molecule `Cc1nccnc1-c1cc(C(C)C)c2nc(Nc3ccc(P(C)(C)=O)cc3F)ncc2c1` [II-12] had a half-inhibitory concentration (IC50) greater than 2500 nM.

The molecule `COc1cc(Nc2ncc3cc(-c4nccnc4C)cc(C(C)C)c3n2)ccc1P(C)(C)=O` [II-16] returned an IC50 of 500 to 2500 nM.

`Cc1nccnc1-c1cc(C(C)C)c2nc(Nc3ccc(P(C)(C)=O)c(C)c3F)ncc2c1` [II-18] came in with an IC50 greater than 2500 nM.

The molecule `COc1cc(Nc2ncc3cc(-c4nccnc4C)cc(C(C)C)c3n2)c(F)cc1P(C)(C)=O` [II-22] yielded an IC50 of 500 to 2500 nM.

For the molecule `COc1cc(Nc2ncc3cc(-c4nccnc4C)cc(C4CC4)c3n2)ccc1P(C)(C)=O` [II-33], the IC50 was in the range of 100 to 500 nM.

The molecule `COc1cc(Nc2ncc3cc(-c4c(C)ncnc4C)cc(C4CC4)c3n2)ccc1P(C)(C)=O` [II-62] yielded an IC50 of 100 to 500 nM.

Turning to `COc1cc(Nc2ncc3cc(-c4cccnc4C)cc(C4CC4)c3n2)ccc1P(C)(C)=O` [II-64], the IC50 was in the range of 500 to 2500 nM.

On to `COc1cc(Nc2ncc3cc(-c4nnccc4C)cc(C4CC4)c3n2)ccc1P(C)(C)=O` [II-67], for which the IC50 was in the range of 100 to 500 nM.

`COc1cc(Nc2ncc3cc(-c4nccnc4C)cc(C4CC4)c3n2)c(F)cc1P(C)(C)=O` [II-70]: the IC50 fell in the range of 500 to 2500 nM.

Consider `COc1nc(Nc2ncc3cc(-c4nccnc4C)cc(C4CC4)c3n2)ccc1P(C)(C)=O` [II-71], for which the IC50 was in the range of 500 to 2500 nM.

`CCOc1cc(Nc2ncc3cc(-c4nccnc4C)cc(C4CC4)c3n2)ccc1P(C)(C)=O` [II-72] displayed an IC50 of 500 to 2500 nM.

For the molecule `CCP(=O)(CC)c1ccc(Nc2ncc3cc(-c4nccnc4C)cc(C4CC4)c3n2)cc1OC` [II-74], the IC50 is 500 to 2500 nM.

For the molecule `CNc1cc(Nc2ncc3cc(-c4nccnc4C)cc(C4CC4)c3n2)ccc1P(C)(C)=O` [II-77], the IC50 lay within 100 to 500 nM.

With `Cc1c[nH]c(=O)cc1-c1cc(C(C)C)c2nc(Nc3cn(C)nc3C)ncc2c1` [III-2], the half-inhibitory concentration (IC50) was greater than 2500 nM.

The molecule `Cc1c[nH]c(=O)cc1-c1cc(C(C)C)c2nc(Nc3cn(C)nc3C(F)F)ncc2c1` [III-4] returned an IC50 of 500 to 2500 nM.

In the case of `[2H]C([2H])([2H])n1cc(Nc2ncc3cc(-c4cc(=O)[nH]cc4C)cc(C(C)C)c3n2)c(C)n1` [III-9], the IC50 was 500 to 2500 nM.

The next test has as its system T47D cells. The experiment in a line: Cell antiproliferative activity assay (CCK-8), T47D. Conditions: Homo sapiens, 72 h, breast cancer cell line T47D, incubation for 3 days. Type of test: cell-based. On the procedure:
BRK-BaF3, WT-BaF3, WEHI cell line, and breast cancer cell line T47D were cultured using RPMI 1640 Basal medium or DMEM (Dulbecco's Modified Eagle Medium) (Shanghai Peiyuan Biotechnology, L220KJ), supplemented with 10% FBS (Gibco, REF 10099-141C) and 1% P/S (Shanghai Peiyuan Biotechnology, S110JV), in an incubator (Thermo 3020) at 37°C with 5% CO2. Cell viability was above 95%. Cells were passaged at a 3:1 ratio every 3-4 days. For WT-BaF3 cells, WEHI cells were first cultured, and their culture supernatant was filtered through a 0.22 µm filter. This supernatant was added at 10% to the regular culture medium to supplement IL-3 required for WT-BaF3 cell proliferation, which served as the culture medium for WT-BaF3. For testing, cells were first collected and counted, then prepared into a cell suspension at 100,000 cells/mL and plated at 100 µL per well. Drug concentrations started from 10 µM and were serially diluted 3:1. After incubation for 3 days, 20 µL of CCK-8 detection reagent (Targetmol C005) was added to each well. After incubation for 2-4 hours, OD450 was measured using a microplate reader (Varioskan LUX, Thermo Scientific). After subtracting the blank background, the curve was fitted and the IC50 was calculated using XLfit software.
In addition, the following table exemplarily lists the IC50 values of some compounds of the present invention against T47D cells.
As for `Cc1ccc(C#N)cc1-c1cc(C(C)C)c2nc(Nc3cn(CCO)nc3C)ncc2c1` [I-162], the IC50 is no more than 500 nM.

With `Cc1nn(CCO)cc1Nc1ncc2cc(-c3c[nH]nc3C)cc(C(C)C)c2n1` [I-187], the IC50 was no more than 500 nM.

Molecule `Cc1nn(CCO)cc1Nc1ncc2cc(-c3c(C)n[nH]c3C)cc(C(C)C)c2n1` [I-189] returned an IC50 of 500 to 1000 nM.

With `Cc1nn(CCO)cc1Nc1ncc2cc(-c3cnoc3C)cc(C(C)C)c2n1` [I-193], the IC50 was no more than 500 nM.

`Cc1nccnc1-c1cc(C(C)C)c2nc(Nc3ccc(P(C)(C)=O)cc3)ncc2c1` [II-11] returned an IC50 of no more than 500 nM.

The molecule `Cc1nccnc1-c1cc(C(C)C)c2nc(Nc3ccc(P(C)(C)=O)cc3F)ncc2c1` [II-12] registered an IC50 of 500 to 1000 nM.

The molecule `COc1cc(Nc2ncc3cc(-c4nccnc4C)cc(C(C)C)c3n2)ccc1P(C)(C)=O` [II-16] registered an IC50 of no more than 500 nM.

Turning to `Cc1nccnc1-c1cc(C(C)C)c2nc(Nc3ccc(P(C)(C)=O)c(C)c3F)ncc2c1` [II-18], the IC50 lay in the range of 500 to 1000 nM.

In turn, `COc1cc(Nc2ncc3cc(-c4nccnc4C)cc(C(C)C)c3n2)c(F)cc1P(C)(C)=O` [II-22] displayed a half-maximal inhibitory concentration (IC50) of no more than 500 nM.

In the case of `COc1cc(Nc2ncc3cc(-c4nccnc4C)cc(C4CC4)c3n2)ccc1P(C)(C)=O` [II-33], the IC50 was no more than 500 nM.

Molecule `COc1cc(Nc2ncc3cc(-c4c(C)ncnc4C)cc(C4CC4)c3n2)ccc1P(C)(C)=O` [II-62] displayed an IC50 of 500 to 1000 nM.

Take `COc1cc(Nc2ncc3cc(-c4cccnc4C)cc(C4CC4)c3n2)ccc1P(C)(C)=O` [II-64]: the IC50 is no more than 500 nM.

In the case of `COc1cc(Nc2ncc3cc(-c4cnccc4C)cc(C4CC4)c3n2)ccc1P(C)(C)=O` [II-66], the half-maximal inhibitory concentration (IC50) was no more than 500 nM.

`COc1cc(Nc2ncc3cc(-c4nnccc4C)cc(C4CC4)c3n2)ccc1P(C)(C)=O` [II-67] came in with an IC50 of no more than 500 nM.

Molecule `COc1cc(Nc2ncc3cc(-c4nccnc4C)cc(C4CC4)c3n2)c(F)cc1P(C)(C)=O` [II-70] displayed an IC50 of no more than 500 nM.

On to `COc1nc(Nc2ncc3cc(-c4nccnc4C)cc(C4CC4)c3n2)ccc1P(C)(C)=O` [II-71], for which the IC50 is no more than 500 nM.

With `CCOc1cc(Nc2ncc3cc(-c4nccnc4C)cc(C4CC4)c3n2)ccc1P(C)(C)=O` [II-72], the IC50 is no more than 500 nM.

On to `CCP(=O)(CC)c1ccc(Nc2ncc3cc(-c4nccnc4C)cc(C4CC4)c3n2)cc1OC` [II-74], for which the IC50 was no more than 500 nM.

In turn, `CNc1cc(Nc2ncc3cc(-c4nccnc4C)cc(C4CC4)c3n2)ccc1P(C)(C)=O` [II-77] displayed an IC50 of no more than 500 nM.

The molecule `Cc1c[nH]c(=O)cc1-c1cc(C(C)C)c2nc(Nc3cn(C)nc3C)ncc2c1` [III-2] had a half-inhibitory concentration (IC50) of no more than 500 nM.

Consider `Cc1c[nH]c(=O)cc1-c1cc(C(C)C)c2nc(Nc3cn(C)nc3C(F)F)ncc2c1` [III-4], for which the IC50 was 500 to 1000 nM.

In turn, `[2H]C([2H])([2H])n1cc(Nc2ncc3cc(-c4cc(=O)[nH]cc4C)cc(C(C)C)c3n2)c(C)n1` [III-9] displayed an IC50 of no more than 500 nM.

For orientation: IC50 means the concentration needed to halve the response being measured. A higher IC50 goes with lower potency.
